We go through 19 compounds from patent US20130046012A1, “NEW COMPOUNDS, SYNTHESIS AND USE THEREOF IN THE TREATMENT OF PAIN” (LACER, S.A., priority 2010, published 2013).

Test [1] deals with Male Swiss mice. Nature of the test: Formalin test (analgesic activity, licking time of the injected paw). The test is classed as in vivo. The following applies: p.o. 10 min before 5% formalin injection into hind paw, second phase (15-60 min), % inhibition of licking vs. control, Litchfield and Wilcoxon; for ED50: Mus musculus, po, read-out: FORMALIN TEST (ED50 p.o) Phase II. The method, then: The pharmacological activity of the products of the present invention was tested in vivo in formalin test model, which is known to evaluate neuropathic and inflammatory pain in animals.
The formalin test was introduced as a model of tonic pain in 1977, and has since […] been used extensively in rats and mice. In rats, formalin generates an initial phase of activity (5-10 min, phase 1), a quiescent interphase (5-10 min), and a second phase of activity (lasting 60-90 min, phase 2), and this is seen with spontaneous behaviors, firing of afferent neurons, and activity in dorsal horn neurons. Both active phases involve ongoing peripheral afferent neural activity; inflammation contributes to phase 2 activity and the interphase results from active inhibition. Responses are concentration dependent between 0.25% and 2.5%, plateau from 2.5% to 5%, and can decline at higher concentrations. Formalin also results in tissue edema, and this is longer lasting. Responses to formalin up to 2.5% are predominantly neurogenic, while at higher concentrations, responses involve a further prominent inflammatory component. Within the spinal cord, formalin increases c-Fos expression in neurons and causes activation of microglia, and these may contribute more prominently to longer term changes. Acute responses (to 90 min) may represent a model of ongoing acute pain involving inflammation and aspects of central sensitization, while longer term responses (days, weeks) may represent a model of changes involved in persistent pathological pain.
Male Swiss mice (weight range, 16-20 g) were used (n=6-8 per group).Mice were fasted for 3 hours before the administration of oral treatment with free access to drinking water before the experiment. All experiments were conducted in accordance with the “Guidelines on Ethical Standards for Investigation of Experimental Pain in Animals
Mice were housed in clear plastic chambers with a mirror placed at a 45° angle to allow an unobstructed view of the paws. Mice were injected into the dorsal surface of hind paw with 20 μl of dilute formalin (5%) using a 30-gauge needle. Treatments were administrated p.o. 10 min before formalin injection.
Nociceptive behavior was quantified measuring time spent licking the injected paw after injection.
For evaluation of antinociceptive effect of a potential drug for neuropathic pain, the quantization of the second phase of the test (15-60 min) is the most important. Controls animals were observed under identical conditions without receiving treatments before formalin injection.
For each dose of compound given the % inhibition of licking vs. control animals were calculated. ED50 was calculated using the method of Litchfield and Wilcoxon. At the end of the experiments, mice were humanely euthanized with a dose of sodium pentobarbital (150 mg/kg i.p.).

Test [2] concerns Male Swiss mice. The experiment in a line: Hot plate method (acute pain model). The following applies: Mus musculus, oral, 30 minutes before test, hot surface 55° C, dose producing 50% MPE, cutoff 60 seconds, read-out: HOT PLATE (ED50, p.o). In kind it is in vivo. As to the method:
The activity of some of the products was also tested using an acute pain model by using the hot plate method.
The method that was used is described by Eddy N. B. and Leimbach D. (J. Pharm. Exp. Ther. 107: 385-393, 1953). The analgesic effect of the products was evaluated analyzing the behavior of the animals on a hot surface at 55° C±1° C.
Male Swiss mice weighing 20-25 g were used. The compounds being tested were administered orally 30 minutes before starting the test.
The process consisted of placing the animals on the plate and keeping them in a Plexiglas cylinder 25 cm high and 21 cm […]. The time the animals took to jump off the hot surface was determined The animals were selected before starting the test so that those that took longer than 10 seconds to jump off (predrug latency) were not included in the group that would receive treatment.
A predrug latency time was determined before product treatment in all animals and 30 minutes after administering the product being tested, the test was repeated and the maximum time it took the animals to jump off (test latency) was again recorded.
The results are expressed in the table as ED50 that was calculated from % MPE (Maximum Posible Effect) determined as follows:
% MPE=100×(test latency−predrug latency)/(cutoff time−predrug latency)
The % MPE was measured for each compound at different dose levels (μmol/kg) and the ED50 values (dose of compound that produced 50% MPE) were obtained using a computer assisted linear regression analysis of the dose-response curve, including an analysis of variance test for linearity.
(In general: Hot-plate and tail-flick tests time the reaction to a heat stimulus.)

Structures can show the parent of a compound that is named as a salt.

For the compound `CCOC(=O)NC[C@H](CC(=O)Oc1cccc([C@@]2(O)CCCC[C@@H]2CN(C)C)c1)CC(C)C` [Product of example 24, (S)-3-((1R,2R)-2-((dimethylamino)methyl)-1-hydroxycyclohexyl)phenyl 3-((ethoxycarbonylamino)methyl)-5-methylhexanoate], the ED50 in test [1] came to 56.9 µmol/kg.

With `CCOC(=O)NCC1(CC(=O)Oc2cccc(C3=CCCCC3CN(C)C)c2)CCCCC1` (centres unmarked) [Product of example 20, 3-(6-((dimethylamino)methyl)cyclohex-1-enyl)phenyl 2-(1-((ethoxycarbonylamino)methyl)cyclohexyl)acetate], in test [1], the ED50 was 59.7 µmol/kg.

As to `COc1cccc([C@@]2(O)CCCC[C@@H]2CN(C)C)c1` (relative stereo) [Tramadol hydrochloride, (1R,2R)-rel-2-[(dimethylamino)methyl]-1-(3-methoxyphenyl) cyclohexanol, reference compound], the ED50 stood at 66 µmol/kg in test [2] and 139 µmol/kg in test [1].

Consider `CCOC(=O)NCC1(CC(=O)Oc2cccc(C3=C(CN(C)C)CCCC3)c2)CCCCC1` [Product of example 19, 3-(2-((dimethylamino)methyl)cyclohex-1-enyl)phenyl 2-(1-((ethoxycarbonylamino)methyl)cyclohexyl)acetate], for which the ED50 in test [1] was 62.7 µmol/kg.

Regarding `CN(C)C[C@@H]1CCCC[C@@]1(O)c1cccc(OC(=O)CC2(CNC(=O)OC(C)(C)C)CCCCC2)c1` [Product of example 3], the ED50 in test [1] stood at 65.9 µmol/kg.

For the compound `CN(C)CC1CCCCC1(O)c1cccc(OC(=O)CC2(CNC(=O)Oc3ccccc3)CCCCC2)c1` (centres unmarked) [Product of example 17, (1R2R, 1S2S)3(2-((dimethylamino)methyl)-1-hydroxycyclohexyl)phenyl 2-(1-((phenoxycarbonylamino)methyl)cyclohexyl)acetate], the ED50 in test [1] came to 39 µmol/kg.

`CCOC(=O)NCC1(CC(=O)Oc2cccc([C@@]3(O)CCCC[C@@H]3CN(C)C)c2)CCCCC1` [Product of example 5, 3-((1R,2R)-2-((dimethylamino)methyl)-1-hydroxycyclohexyl)phenyl 2-(1-((ethoxycarbonylamino)methyl)cyclohexyl)acetate]: the ED50 in test [1] came to 6 µmol/kg.

For `CN(C)C[C@H]1CCCC[C@]1(O)c1cccc(OC(=O)CC2(CNC(=O)OC(C)(C)C)CCCCC2)c1` [Product of example 2], the results for the ED50 in test [2] and in test [1] were 8 µmol/kg and 17.2 µmol/kg, respectively.

Consider `COc1cccc([C@@]2(O)CCCC[C@@H]2CN(C)C)c1` (single isomer, unassigned) [Tramadol Enantiomer R,R, reference compound], for which the “FORMALIN TEST (ED50 p.o) Phase II” value in test [1] was 126.6 µmol/kg.

`CC(C)OC(=O)NCC1(CC(=O)Oc2cccc(C3(O)CCCCC3CN(C)C)c2)CCCCC1` (centres unmarked) [Product of example 15, (1R2R, 1S2S) 3-(2-((dimethylamino)methyl)-1-hydroxycyclohexyl)phenyl 2-(1-((isopropoxycarbonylamino)methyl)cyclohexyl)acetate]: the ED50 in test [1] was 57.9 µmol/kg.

Regarding `CCOC(=O)NCC1(CC(=O)Oc2cccc([C@@H](CC)[C@@H](C)CN(C)C)c2)CCCCC1` [Product of example 22, 3-((2R,3S)-1-(dimethylamino)-2-methylpentan-3-yl)phenyl 2-(1-((ethoxycarbonylamino)methyl)cyclohexyl)acetate], in test [1], the ED50 was found to be 30.4 µmol/kg.

`COc1cccc([C@]2(O)CCCC[C@H]2CN(C)C)c1` (single isomer, unassigned) [Tramadol Enantiomer S,S, reference compound]: the “FORMALIN TEST (ED50 p.o) Phase II” value in test [1] was determined as 233.3 µmol/kg.

As to `CCOC(=O)NC[C@H](CC(=O)Oc1cccc(C2(O)CCCCC2CN(C)C)c1)CC(C)C` (stereo partly drawn) [Product of example 23, (1R2R, 1S2S)-(S)-3-(2-((dimethylamino)methyl)-1-hydroxycyclohexyl)phenyl 3-((ethoxycarbonylamino)methyl)-5-methylhexanoate], in test [1], the ED50 turned out to be 75.2 µmol/kg.

With `CC(=O)NCC1(CC(=O)Oc2cccc(C3(O)CCCCC3CN(C)C)c2)CCCCC1` (centres unmarked) [Product of example 18, (1R2R, 1S2S)3(2-((dimethylamino)methyl)-1-hydroxycyclohexyl)phenyl 2-(1-(acetamidomethyl)cyclohexyl)acetate], the ED50 in test [1] stood at 30.4 µmol/kg.

On to `CCOC(=O)NCC1(CC(=O)Oc2cccc([C@]3(O)CCCC[C@H]3CN(C)C)c2)CCCCC1` [Product of example 13, 3-((1S,2S)-2-((dimethylamino)methyl)-1-hydroxycyclohexyl)phenyl 2-(1-((ethoxycarbonylamino)methyl)cyclohexyl)acetate], for which the ED50 in test [1] amounted to 28 µmol/kg.

For `CN(C)CC1CCCCC1(O)c1cccc(OC(=O)CC2(CNC(=O)OCc3ccccc3)CCCCC2)c1` (centres unmarked) [Product of example 16, (1R2R, 1S2S)3(2-((dimethylamino)methyl)-1-hydroxycyclohexyl)phenyl 2-(1-((benzyloxycarbonylamino)methyl)cyclohexyl)acetate], the ED50 in test [1] amounted to 37.9 µmol/kg.

For the compound `CN(C)CC1CCCCC1(O)c1cccc(OC(=O)CC2(CNC(=O)OC(C)(C)C)CCCCC2)c1` (centres unmarked) [Product of example 1, (1R2R, 1S25)-3-(2-((dimethylamino)methyl)-1-hydroxycyclohexyl)phenyl 2-(1-((tert-butoxycarbonylamino)methyl)cyclohexyl)acetate], the ED50 in test [2] worked out at 35.7 µmol/kg; in test [1] it was 39.9 µmol/kg.

Turning to `COC(=O)NCC1(CC(=O)Oc2cccc(C3(O)CCCCC3CN(C)C)c2)CCCCC1` (centres unmarked) [Product of example 14, (1R2R, 1S2S) 3-(2-((dimethylamino)methyl)-1-hydroxycyclohexyl)phenyl 2-(1-((methoxycarbonylamino)methyl)cyclohexyl)acetate], the ED50 in test [1] is 44.5 µmol/kg.

In the case of `CCOC(=O)NCC1(CC(=O)Oc2cccc(C3(O)CCCCC3CN(C)C)c2)CCCCC1` (centres unmarked) [Product of example 4, (1R2R, 1S2S) 3-(2-((dimethylamino)methyl)-1-hydroxycyclohexyl)phenyl 2-(1-((ethoxycarbonylamino)methyl)cyclohexyl)acetate], the ED50 in test [2] came out at 26.3 µmol/kg; in test [1] it was 19 µmol/kg.

For orientation: ED50 means the dose at which the effect has come halfway, by size or by number of responders.
